The source of these data is ChEMBL document CHEMBL1122834, “Synthesis and in vitro pharmacology of 7-oxabicyclo[2.2.1]heptane analogues of thromboxane A2/PGH2” (J Med Chem, 1985).

Test [1] is filed under the species Homo sapiens. Put plainly: Inhibitory activity against aggregation of human platelet induced by adenosine diphosphate. Format: functional.
Test [2] is filed under the species Homo sapiens. The experiment in a line: Inhibitory activity against aggregation of human platelet induced by arachidonic acid. The note with it: read-out: I50. The class given is functional.
For test [3], the species on record is Homo sapiens. The experiment in a line: Inhibitory activity against aggregation of human platelet induced by epinephrine 1. The class given is functional.
For test [4], the species on record is Homo sapiens. Put plainly: Inhibitory activity against aggregation of human platelet induced by epinephrine 2. The class given is functional.
For test [5], the target named is T1, Thromboxane-A synthase (Homo sapiens, UniProt P24557).
T1 sequence (P24557 whole entry): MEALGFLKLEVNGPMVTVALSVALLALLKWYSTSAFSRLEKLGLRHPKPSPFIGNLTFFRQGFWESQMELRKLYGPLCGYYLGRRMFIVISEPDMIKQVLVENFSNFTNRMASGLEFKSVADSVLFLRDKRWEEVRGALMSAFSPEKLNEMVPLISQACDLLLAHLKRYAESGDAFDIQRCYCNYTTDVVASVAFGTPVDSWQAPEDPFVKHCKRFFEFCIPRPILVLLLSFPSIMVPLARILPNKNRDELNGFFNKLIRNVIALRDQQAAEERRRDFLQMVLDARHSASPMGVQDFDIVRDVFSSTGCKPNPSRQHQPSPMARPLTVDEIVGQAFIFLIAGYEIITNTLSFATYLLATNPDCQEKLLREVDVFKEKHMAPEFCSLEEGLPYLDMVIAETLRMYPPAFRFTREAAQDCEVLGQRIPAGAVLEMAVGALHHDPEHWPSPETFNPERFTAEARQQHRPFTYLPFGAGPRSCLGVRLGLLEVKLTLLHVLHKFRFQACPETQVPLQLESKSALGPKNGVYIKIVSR
The experiment in a line: Inhibition of human platelet Thromboxane synthetase. The note with it: read-out: I50.

The species entered for test [6] is Cavia porcellus. The experiment in a line: Selectivity against 9,11-AZO-PGH2 induced contractions of smooth muscle guinea pig trachea. The class given is functional.
The species named for test [7] is Cavia porcellus. The experiment in a line: Selectivity against histamine in smooth muscle of guinea pig trachea stimulated with histamine. Format: functional. The note with it: Muscle tissue.
Another test is filed under the species Rattus norvegicus. Put plainly: Direct effect on rat stomach strip (RSS) preparation. The class given is functional.
The species entered for test [8] is Homo sapiens. The experiment in a line: Stimulatory activity against aggregation of human platelet induced by adenosine diphosphate. The class given is functional.
The species named for test [9] is Homo sapiens. Put plainly: Stimulatory activity against aggregation of human platelet induced by arachidonic acid. Format: functional.
The species entered for test [10] is Homo sapiens. Put plainly: Stimulatory activity against aggregation of human platelet induced by epinephrine 1. Format: functional.
The species entered for test [11] is Homo sapiens. Put plainly: Stimulatory activity against aggregation of human platelet induced by epinephrine 2. Format: functional.
In test [12] the target is T2, Thromboxane-A synthase (Homo sapiens) (UniProt P24557).
T2 sequence (whole entry): T1 sequence (P24557 whole entry)
The note with it: 1000 uM.
Description: Inhibitory activity against human platelet Thromboxane synthetase at a dose of 1000 uM

For test [13], the target named is T1, Thromboxane-A synthase. Put plainly: Inhibitory activity against human platelet Thromboxane synthetase. The note with it: read-out: I 50.
For test [14], the species on record is Homo sapiens. Put plainly: stimulatory activity against aggregation of human platelet induced by epinephrine 2. The class given is functional.
The species named for test [15] is Homo sapiens. Put plainly: stimulatory activity against aggregation of human platelet induced by adenosine diphosphate. Format: functional.
For test [16], the species on record is Homo sapiens. Put plainly: stimulatory activity against aggregation of human platelet induced by arachidonic acid. Format: functional.
The species named for test [17] is Homo sapiens. The experiment in a line: stimulatory activity against aggregation of human platelet induced by epinephrine 1. Format: functional.

pIC50: −log10 of the molar value. Some results are limits rather than exact numbers.

In the case of `CCCCC[C@@H](O)/C=C/[C@@H]1C2CCC(O2)[C@H]1C/C=C\CCCC(=O)O` (stereo in doubt; 5d), the pIC50 was below 3.00 in the test listed under Homo sapiens [1] (Homo sapiens, read-out: I50); 4.02 in the test filed under Homo sapiens [2]; below 3.00 in the test listed under Homo sapiens [3] (Homo sapiens, read-out: I50); 4.28 in the test filed under Homo sapiens [4] (Homo sapiens, read-out: I50); below 3.00 on Thromboxane-A synthase [5].
With `CCCCC[C@@H](O)/C=C/[C@H]1C2CCC(O2)[C@H]1C/C=C\CCCC(=O)O` (stereo in doubt; 2b), the pIC50 in the test filed under Cavia porcellus [6] (read-out: I50) is below 5.00; in the test listed under Cavia porcellus [7] (read-out: I50), below 5.00; in the test listed under Homo sapiens [1] (Homo sapiens, read-out: I50), below 3.00; in the test listed under Homo sapiens [2], 3.44; in the test filed under Homo sapiens [3] (Homo sapiens, read-out: I50), below 3.00; in the test listed under Homo sapiens [4] (Homo sapiens, read-out: I50), 3.89. The pIC50 on Thromboxane-A synthase [5] is below 3.00. Besides, the A50 in the test filed under Rattus norvegicus is above 10 µM.
Consider `CCCCC[C@H](O)/C=C/[C@@H]1C2CCC(O2)[C@@H]1C/C=C\CCCC(=O)O` (stereo in doubt; 3b), for which the pIC50 in the test filed under Cavia porcellus [6] (read-out: I50) was 6.92; in the test listed under Cavia porcellus [7] (read-out: I50), below 5.00; in the test listed under Homo sapiens [1] (read-out: I50), 3.51; in the test listed under Homo sapiens [2] it was 6.22; in the test filed under Homo sapiens [3] (read-out: I50), 3.17; in the test listed under Homo sapiens [4] (read-out: I50) it was 5.12. For the same compound, the pIC50 at Thromboxane-A synthase [5] is 3.00. The A50 in the test filed under Rattus norvegicus came to 0.4 µM.
For orientation: inhibition means the share of the control response that was lost under treatment. Read a low inhibition as a response near the control. As for `CCCCC[C@H](O)/C=C/[C@H]1C2CCC(O2)[C@@H]1C/C=C\CCCC(=O)O` (stereo partly specified), the pIC50 in the test listed under Cavia porcellus [6] (read-out: I50) was 5.66; in the test listed under Cavia porcellus [7] (read-out: I50), below 5.00; in the test listed under Homo sapiens [1] (Homo sapiens, read-out: I50), below 3.00; in the test filed under Homo sapiens [2] (Homo sapiens), 4.64; in the test filed under Homo sapiens [3] (Homo sapiens, read-out: I50), below 3.00; in the test listed under Homo sapiens [4] (Homo sapiens, read-out: I50), 4.25. The pIC50 on Thromboxane-A synthase [5] was below 3.00. Further, the A50 was found to be 0.26 µM in the test filed under Homo sapiens [8]; 0.26 µM in the test filed under Homo sapiens [9]; 0.26 µM in the test listed under Homo sapiens [10]; 0.26 µM in the test listed under Homo sapiens [11]; 0.0009 µM in the test listed under Rattus norvegicus. Also, in test [12], the inhibition came out at 71%.
For the compound `CCCCC[C@H](O)/C=C/[C@@H]1C2CCC(O2)[C@@H]1C/C=C\CCCC(=O)O` (stereo in doubt; 2c), the pIC50 in the test filed under Homo sapiens [1] (read-out: I50) was below 3.00; in the test filed under Homo sapiens [2], 3.51; in the test listed under Homo sapiens [3] (Homo sapiens, read-out: I50), below 3.00; in the test listed under Homo sapiens [4] (Homo sapiens, read-out: I50), 5.22; on Thromboxane-A synthase [5], below 3.00.
In the case of `CCCCC[C@@H](O)/C=C/[C@H]1C2CCC(O2)[C@@H]1C/C=C\CCCC(=O)O` (stereo in doubt; 5b), the pIC50 in the test filed under Cavia porcellus [6] (read-out: I50) was 5.31; in the test listed under Cavia porcellus [7] (read-out: I50), below 5.00; in the test listed under Homo sapiens [2], 5.02; in the test listed under Homo sapiens [3] (read-out: I50), below 3.00; in the test filed under Homo sapiens [4] (read-out: I50), 6.15; on Thromboxane-A synthase [5], below 3.00. For the same compound, in the test listed under Rattus norvegicus, the A50 amounted to 0.88 µM.
As for `CCCCC[C@H](O)/C=C/[C@@H]1C2CCC(O2)[C@H]1C/C=C\CCCC(=O)O` (stereo partly specified), the pIC50 in the test listed under Cavia porcellus [6] (read-out: I50) was 6.47; in the test filed under Cavia porcellus [7] (read-out: I50), 5.62; in the test filed under Homo sapiens [1] (Homo sapiens, read-out: I50), 5.80; in the test listed under Homo sapiens [2] (Homo sapiens) it was 6.52; in the test filed under Homo sapiens [3] (Homo sapiens, read-out: I50), 5.66; in the test listed under Homo sapiens [4] (Homo sapiens, read-out: I50), 5.38. Besides, at Thromboxane-A synthase [5], the pIC50 is 3.00. In addition, the A50 in the test filed under Homo sapiens [8] was determined as 30 µM; in the test listed under Homo sapiens [9], 30 µM; in the test filed under Homo sapiens [10], 30 µM; in the test filed under Homo sapiens [11] it was 30 µM; in the test listed under Rattus norvegicus it was 2.9 µM.
`CCCCC[C@@H](O)/C=C/[C@H]1C2CCC(O2)[C@H]1C/C=C\CCCC(=O)O` (stereo in doubt; 3d): the results for the pIC50 in the test listed under Homo sapiens [2] and in the test listed under Homo sapiens [4] (read-out: I50) were 4.03 and 3.77, respectively.
With `CCCCC[C@@H](O)/C=C/[C@@H]1C2CCC(O2)[C@H]1C/C=C\CCCC(=O)O` (stereo in doubt; 4a), the pIC50 in the test filed under Cavia porcellus [6] (read-out: I 50) was 4.19; in the test filed under Cavia porcellus [7] (read-out: I 50), below 5.00; in the test listed under Homo sapiens [1] (read-out: I 50) it was 3.82; in the test filed under Homo sapiens [2] it was 5.38; in the test filed under Homo sapiens [3] (read-out: I 50), below 3.00; in the test listed under Homo sapiens [4] (read-out: I 50), 5.00. Also, on Thromboxane-A synthase [13], the pIC50 is 3.11. In the test filed under Rattus norvegicus, the A50 amounted to 0.51 µM.
With `CCCCC[C@H](O)/C=C/[C@H]1C2CCC(O2)[C@H]1C/C=C\CCCC(=O)O` (stereo partly specified), the pIC50 is 5.68 in the test filed under Cavia porcellus [6] (read-out: I50); below 5.00 in the test filed under Cavia porcellus [7] (read-out: I50); below 3.00 in the test listed under Homo sapiens [1] (Homo sapiens, read-out: I50); 5.04 in the test filed under Homo sapiens [2] (Homo sapiens); below 3.00 in the test filed under Homo sapiens [3] (Homo sapiens, read-out: I50); 6.22 in the test filed under Homo sapiens [4] (Homo sapiens, read-out: I50). For the same compound, the pIC50 on Thromboxane-A synthase [5] is below 3.00. Moreover, the A50 in the test listed under Homo sapiens [8] is 20 µM; in the test filed under Homo sapiens [9], 20 µM; in the test filed under Homo sapiens [10] it was 20 µM; in the test filed under Homo sapiens [11], 20 µM; in the test listed under Rattus norvegicus it was 0.22 µM.
As to `CCCCC[C@@H](O)/C=C/[C@H]1C2CCC(O2)[C@@H]1C/C=C\CCCC(=O)O` (stereo in doubt; 4d), the pIC50 in the test filed under Homo sapiens [1] (Homo sapiens, read-out: I50) is below 3.00; in the test filed under Homo sapiens [2], 3.00; in the test filed under Homo sapiens [3] (Homo sapiens, read-out: I50), 3.17; in the test filed under Homo sapiens [4] (read-out: I50) it was 3.85; on Thromboxane-A synthase [5], 3.33.
For the compound `CCCCC[C@@H](O)/C=C/[C@@H]1C2CCC(O2)[C@@H]1C/C=C\CCCC(=O)O` (stereo in doubt; 3a), the pIC50 in the test filed under Cavia porcellus [6] (read-out: I50) was below 5.00; in the test listed under Cavia porcellus [7] (read-out: I50), below 5.00; on Thromboxane-A synthase [5], 3.00. In addition, the A50 in the test filed under Homo sapiens [14] is 2 µM; in the test filed under Homo sapiens [15], 2 µM; in the test filed under Homo sapiens [16], 2 µM; in the test filed under Homo sapiens [17], 2 µM; in the test listed under Rattus norvegicus, 0.0015 µM.
Take `CCCCC[C@@H](O)/C=C/[C@@H]1C2CCC(O2)[C@@H]1C/C=C\CCCC(=O)O` (stereo in doubt; 2d): the pIC50 in the test filed under Homo sapiens [1] (Homo sapiens, read-out: I50) was below 3.00; in the test listed under Homo sapiens [2] (Homo sapiens), 3.85; on Thromboxane-A synthase [5] it was 3.25.
